A short description of data set [1]: In vitro permeation (Hanson Microette Franz Cell), flux across polysulfone membrane. It is filed as in vitro ADME. The procedure:
(§1) An in vitro permeation procedure for oxymetazoline cream was developed using the 0.01 and 0.10% w/w oxymetazoline cream. The in vitro experiments were conducted using Hanson Microette Franz Cell apparatus and 0.01N PBS (pH 7.4) as the receiving medium. Other critical parameters were evaluated such as the type of semi-synthetic membrane, sample timing (time dependent release-permeability profile), method sensitivity, specificity and linearity.
Permeation characterization of oxymetazoline cream of different strengths (0.01% w/w, 0.05% w/w, 0.10% w/w and 0.15% w/w) was based on flux study across two different artificial membranes (cellulose acetate and polysulfone). The concentration of oxymetazoline which permeated through the membranes was measured using an HPLC assay.

The nature of data set [2]: In vitro permeation (Hanson Microette Franz Cell), flux across cellulose acetate membrane. The data set is classed as in vitro ADME. The procedure: as §1, with “linearity. Permeation characterization of oxymetazoline cream of different strengths (0.01% w/w, 0.05% w/w, 0.10% w/w and 0.15% w/w) was based on flux study across two different artificial membranes (cellulose acetate and polysulfone). The concentration of oxymetazoline which permeated through the membranes was measured using an HPLC assay.” for “linearity.”

[3] abbreviates: concentration range 0.01-0.10% w/w.
Setting [4] is: creams 0.01-0.15% w/w, dump and die profile.

For the compound `Cc1cc(C(C)(C)C)c(O)c(C)c1CC1=NCCN1` [oxymetazoline, 3-(4,5-dihydro-1H-imidazol-2-ylmethyl)-2,4-dimethyl-6-tert-butyl-phenol], the “concentration level above which in vitro membrane transport reached saturation” value in data set [1] and in data set [2] was > 0.1 % w/w in each case. For the same compound, the “Oxymetazoline permeability (AUC0-24h) as a function of concentration” value in data set [1] (setting [3]) and in data set [2] (setting [3]) was “linearly increased” throughout. The “time of peak of oxymetazoline permeation rate after cream application” value in data set [1] (setting [4]) and in data set [2] (setting [4]) was 0.5 h in each case.

The values above are taken from US20140113947A1, “PHARMACEUTICAL CREAM COMPOSITIONS OF OXYMETAZOLINE AND METHODS OF USE” (Allergan, Inc., priority 2011, published 2014).
